The target in the first test is T1, KRAS G12C 1-169, his-tagged protein, GDP-loaded (Homo sapiens, UniProt P01116, G12C).
T1 construct: KRAS G12C 1-169, his-tagged protein, GDP-loaded
Briefly: Biochemical assay: covalent modification of KRAS G12C measured by mass spectrometry (RapidFire/TOF or Q-Exactive). Further: time not given here. The conditions noted are these: tested at 32 μM. It is filed as binding. The essentials:
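GDP-loaded KRAS G12C 1-169 (his-tagged, 2 μM or 0.5 μM in 20 mM Hepes, 150 mM NaCl, 1 mM MgCl2) reacted with compound at 32 μM or 8 μM final, then quenched with formic acid. Intact-protein LC-MS (RapidFire/TOF or Q-Exactive) with charge-envelope deconvolution; % modification from modified vs unmodified peak intensities.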
For `C=CC(=O)N1CCC2(C1)CN(c1ccc(F)c(-c3c(C)ccc4[nH]ncc34)c1C#N)C2` [Compound I-95, 6-(6-acryloyl-2,6-diazaspiro[3.4]octan-2-yl)-3-fluoro-2-(5-methyl-1H-indazol-4-yl)benzonitrile], the Bind % entry is “+ (+ indicates binding activity greater than 0% and up to 50%)”.

With `C=CC(=O)N1CCC2(CC1)CN(c1ccc(F)c(-c3c(C)ccc4[nH]ncc34)c1C#N)C2` [Compound I-96, 6-(7-acryloyl-2,7-diazaspiro[3.5]nonan-2-yl)-3-fluoro-2-(5-methyl-1H-indazol-4-yl)benzonitrile], the Bind % result was “+ (+ indicates binding activity greater than 0% and up to 50%)”.

For the compound `C=CC(=O)N1CC2(CCN(c3cc(N4CCOCC4)c(F)c(-c4c(C)ccc5cnn(C)c45)c3C#N)CC2)C1` [Compound I-97, 6-(2-acryloyl-2,7-diazaspiro[3.5]nonan-7-yl)-2-(1,6-dimethyl-1H-indazol-7-yl)-3-fluoro-4-morpholino-benzonitrile], the Bind % entry was “+ (+ indicates binding activity greater than 0% and up to 50%)”.

Turning to `C=CC(=O)N1CC2(CCN(c3ccc(F)c(-c4c(C)ccc5[nH]ncc45)c3)C2)C1` [Compound I-99], the Bind % entry is “++ (++ indicates binding activity from 50 to 75%)”.

With `C=CC(=O)N1CC2(CCN(c3ccc(OC4CCN(C)CC4)c(-c4c(C)ccc5[nH]ncc45)c3C#N)CC2)C1` [Compound I-100, 6-(2-acryloyl-2,7-diazaspiro[3.5]nonan-7-yl)-2-(5-methyl-1H-indazol-4-yl)-3-((1-methylpiperidin-4-yl)oxy)benzo-nitrile], the Bind % result was “+ (+ indicates binding activity greater than 0% and up to 50%)”.

In the case of `C=CC(=O)N1CC2(CCN(c3ccc(C#N)c(-c4c(C)ccc5[nH]ncc45)c3)C2)C1` [Compound I-101, 4-(2-acryloyl-2,6-diazaspiro[3.4]octan-6-yl)-2-(5-methyl-1H-indazol-4-yl)benzonitrile], the Bind % entry was “+ (+ indicates binding activity greater than 0% and up to 50%)”.

`C=CC(=O)N1CC2(CCN(c3ccc(F)c(-c4c(C)ccc5[nH]ncc45)c3)CC2)C1` [Compound I-102, 1-(7-(4-fluoro-3-(5-methyl-1H-indazol-4-yl)phenyl)-2,7-diazaspiro[3.5]nonan-2-yl)prop-2-en-1-one]: the Bind % entry was “+ (+ indicates binding activity greater than 0% and up to 50%)”.

With `C=CC(=O)N1CC2(CCN(c3cc(OCCCN(C)C)c(OC)c(-c4c(C)ccc5[nH]ncc45)c3)CC2)C1` [Compound I-103, 1-(7-(3-(3-(dimethylamino)propoxy)-4-methoxy-5-(5-methyl-1H-indazol-4-yl)phenyl)-2,7-diazaspiro[3.5]nonan-2-yl)prop-2-en-1-one], the Bind % entry was “++ (++ indicates binding activity from 50 to 75%)”.

Regarding `C=CC(=O)N1CC2(CCN(c3cc(OCCCN(C)C)c(OC)c(-c4c(C)ccc5cnn(C)c45)c3C#N)CC2)C1` [Compound I-104], the Bind % entry was “+ (+ indicates binding activity greater than 0% and up to 50%)”.

Regarding `C=CC(=O)N1CC2(CCN(c3ccc(C#N)c(-c4c(C)ccc5[nH]ncc45)c3)CC2)C1` [Compound I-105, 4-(2-acryloyl-2,7-diazaspiro[3.5]nonan-7-yl)-2-(5-methyl-1H-indazol-4-yl)benzonitrile], the Bind % result is “+ (+ indicates binding activity greater than 0% and up to 50%)”.

`C=CC(=O)N1CC2(CCN(c3ccc(F)c(-c4c(C)ccc5[nH]ncc45)c3C#N)CC2)C1` [Compound I-106, 6-(2-acryloyl-2,7-diazaspiro[3.5]nonan-7-yl)-3-fluoro-2-(5-methyl-1H-indazol-4-yl)benzonitrile]: the Bind % result is “+ (+ indicates binding activity greater than 0% and up to 50%)”.

On to `C=CC(=O)N1CC2(CCN(c3cc(OCc4ccccn4)cc(-c4c(C)ccc5[nH]ncc45)c3)CC2)C1` [Compound I-107, 1-(7-(3-(5-methyl-1H-indazol-4-yl)-5-(pyridin-2-ylmethoxy)phenyl)-2,7-diazaspiro[3.5]nonan-2-yl)prop-2-en-1-one], for which the Bind % entry is “+ (+ indicates binding activity greater than 0% and up to 50%)”.

For the compound `C=CC(=O)N1CC2(CCN(c3cc(N4CCOCC4)cc(-c4c(C)ccc5[nH]ncc45)c3C#N)CC2)C1` [Compound I-108, 2-(2-acryloyl-2,7-diazaspiro[3.5]nonan-7-yl)-6-(5-methyl-1H-indazol-4-yl)-4-morpholino-benzonitrile], the Bind % result is “+ (+ indicates binding activity greater than 0% and up to 50%)”.

Take `C=CC(=O)N1CC2(CCN(c3ccc(OC4CCN(C)CC4)c(-c4c(C)ccc5cnn(C)c45)c3C#N)CC2)C1` [Compound I-109, 6-(2-acryloyl-2,7-diazaspiro[3.5]nonan-7-yl)-2-(1,6-dimethyl-1H-indazol-7-yl)-3-((1-methylpiperidin-4-yl)oxy)benzo-nitrile]: the Bind % result was “+ (+ indicates binding activity greater than 0% and up to 50%)”.

`C=CC(=O)N1CC2(CCN(c3ccc(F)c(-c4c(C)ccc5[nH]ncc45)c3C#N)CC2)C1` [Compound I-111, 6-(2-acryloyl-2,7-diazaspiro[3.5]nonan-7-yl)-3-fluoro-2-(5-methyl-1H-indazol-4-yl)benzonitrile]: the Bind % result is “+ (+ indicates binding activity greater than 0% and up to 50%)”.

On to `C=CC(=O)N1CC2(CCN(c3ccc(C(F)(F)F)c(-c4c(C)ccc5[nH]ncc45)c3C#N)CC2)C1` [Compound I-112, 6-(2-acryloyl-2,7-diazaspiro[3.5]nonan-7-yl)-2-(5-methyl-1H-indazol-4-yl)-3-(trifluoromethyl) benzonitrile], for which the Bind % result is “+ (+ indicates binding activity greater than 0% and up to 50%)”.

For `C=CC(=O)N1CC2(CCN(c3cc(N4CC(N(C)C)C4)c(F)c(-c4c(C)ccc5[nH]ncc45)c3C#N)CC2)C1` [Compound I-114, 6-(2-acryloyl-2,7-diazaspiro[3.5]nonan-7-yl)-4-(3-(dimethylamino)azetidin-1-yl)-3-fluoro-2-(5-methyl-1H-indazol-4-yl)benzonitrile], the Bind % entry is “+ (+ indicates binding activity greater than 0% and up to 50%)”.

Regarding `C=CC(=O)N1CC2(CCN(c3ccc(Nc4ccccc4)c(-c4c(C)ccc5[nH]ncc45)c3C#N)CC2)C1` [Compound I-115, 6-(2-acryloyl-2,7-diazaspiro[3.5]nonan-7-yl)-2-(5-methyl-1H-indazol-4-yl)-3-(phenylamino) benzonitrile], the Bind % entry is “+ (+ indicates binding activity greater than 0% and up to 50%)”.

Regarding `C=CC(=O)N1CC2(CCN(c3cccc(-c4c(C)ccc5[nH]ncc45)c3C#N)CC2)C1` [Compound I-116, 2-(2-acryloyl-2,7-diazaspiro[3.5]nonan-7-yl)-6-(5-methyl-1H-indazol-4-yl)benzonitrile], the Bind % result is “+ (+ indicates binding activity greater than 0% and up to 50%)”.

On to `C=CC(=O)N1CC2(CCN(c3cc(NCc4ccccn4)c(F)c(-c4c(C)ccc5[nH]ncc45)c3C#N)CC2)C1` [Compound I-117, 6-(2-acryloyl-2,7-diazaspiro[3.5]nonan-7-yl)-3-fluoro-2-(5-methyl-1H-indazol-4-yl)-4-((pyridin-2-ylmethyl)amino) benzonitrile], for which the Bind % entry is reported as “++ (++ indicates binding activity from 50 to 75%)”.

Take `C=CC(=O)N1CC2(CCN(c3ccc(F)c(-c4c(C)ccc5[nH]ncc45)c3Cl)CC2)C1` [Compound I-118, 1-(7-(2-chloro-4-fluoro-3-(5-methyl-1H-indazol-4-yl)phenyl)-2,7-diazaspiro[3.5]nonan-2-yl)prop-2-en-1-one]: the Bind % entry is “+ (+ indicates binding activity greater than 0% and up to 50%)”.

With `C=CC(=O)N1CC2(CCN(c3cc(OCCCN(C)C)c(F)c(-c4c(C)ccc5cnn(C)c45)c3C#N)CC2)C1` [Compound I-119, 6-(2-acryloyl-2,7-diazaspiro[3.5]nonan-7-yl)-2-(1,6-dimethyl-1H-indazol-7-yl)-4-(3-(dimethylamino)propoxy)-3-fluorobenzo-nitrile], the Bind % entry was “+ (+ indicates binding activity greater than 0% and up to 50%)”.

Consider `C=CC(=O)N1CC2(CCN(c3cc(NCCN4CCCC4)c(F)c(-c4c(C)ccc5[nH]ncc45)c3C#N)CC2)C1` [Compound I-120, 6-(2-acryloyl-2,7-diazaspiro[3.5]nonan-7-yl)-3-fluoro-2-(5-methyl-1H-indazol-4-yl)-4-((2-(pyrrolidin-1-yl)ethyl)amino) benzonitrile], for which the Bind % entry is “+ (+ indicates binding activity greater than 0% and up to 50%)”.

As for `C=CC(=O)N1CC2(CCN(c3cc(N4CCCC4)c(F)c(-c4c(C)ccc5[nH]ncc45)c3C#N)CC2)C1` [Compound I-121, 6-(2-acryloyl-2,7-diazaspiro[3.5]nonan-7-yl)-3-fluoro-2-(5-methyl-1H-indazol-4-yl)-4-(pyrrolidin-1-yl)benzonitrile], the Bind % entry was “+ (+ indicates binding activity greater than 0% and up to 50%)”.

Staying with this test, now noted: tested at a concentration of 8 μM.
Take `C=CC(=O)N1CC2(CCN(c3ccc(Cl)c(-c4c(C)ccc5[nH]ncc45)c3C#N)C2)C1` [Compound I-98, 6-(2-acryloyl-2,6-diazaspiro[3.4]octan-6-yl)-3-chloro-2-(5-methyl-1H-indazol-4-yl)benzonitrile]: the Bind % result is on record as “++ (++ indicates binding activity from 50 to 75%)”.

For `C=CC(=O)N1CC2(C1)CN(c1ccc(F)c(-c3c(C)ccc4[nH]ncc34)c1C#N)C2` [Compound I-110, 6-(6-acryloyl-2,6-diazaspiro[3.3]heptan-2-yl)-3-fluoro-2-(5-methyl-1H-indazol-4-yl)benzonitrile], the Bind % entry was “+ (+ indicates binding activity greater than 0% and up to 50%)”.

In the case of `C=CC(=O)N1CC2(CCN(c3cc(OCCCN(C)C)c(F)c(-c4c(C)ccc5[nH]ncc45)c3C#N)CC2)C1` [Compound I-113, 6-(2-acryloyl-2,7-diazaspiro[3.5]nonan-7-yl)-4-(3-(dimethylamino)propoxy)-3-fluoro-2-(5-methyl-1H-indazol-4-yl)benzonitrile], the Bind % result is “+ (+ indicates binding activity greater than 0% and up to 50%)”.

The values are drawn from patent US20210380595A1 (ARAXES PHARMA LLC, priority 2018, published 2021).
